# Data reported in patent US10239869B2, “Sulfonamide compounds as voltage-gated sodium channel modulators” (LUPIN LIMITED, priority 2015, dated 2019).
# pIC50: −log10 of the molar value. Where two headings read alike, the source gives them in different places.
# Columns and labels:
# Nav 1.7 = Nav 1.7 (Homo sapiens (Human), UniProt Q15858); test: Inhibition of sodium channels, Red Membrane Potential Dye FLIPR assay, veratridine depolarization; format: cell-based; details: HEK-293 cells overexpressing the channel; for pIC50: read-out: Nav1.7 IC50
# Nav 1.5 = Nav 1.5 (Homo sapiens (Human), UniProt Q14524); test: as above; format: cell-based; details: HEK-293 cells overexpressing the channel; for IC50: read-out: Nav1.5 IC50 (bound given in μM); for inhibition at 10 µM: HEK-293 cells overexpressing Nav 1.5; for pIC50: read-out: Nav1.5 IC50
# Nav 1.5, sequence (Q14524 whole entry): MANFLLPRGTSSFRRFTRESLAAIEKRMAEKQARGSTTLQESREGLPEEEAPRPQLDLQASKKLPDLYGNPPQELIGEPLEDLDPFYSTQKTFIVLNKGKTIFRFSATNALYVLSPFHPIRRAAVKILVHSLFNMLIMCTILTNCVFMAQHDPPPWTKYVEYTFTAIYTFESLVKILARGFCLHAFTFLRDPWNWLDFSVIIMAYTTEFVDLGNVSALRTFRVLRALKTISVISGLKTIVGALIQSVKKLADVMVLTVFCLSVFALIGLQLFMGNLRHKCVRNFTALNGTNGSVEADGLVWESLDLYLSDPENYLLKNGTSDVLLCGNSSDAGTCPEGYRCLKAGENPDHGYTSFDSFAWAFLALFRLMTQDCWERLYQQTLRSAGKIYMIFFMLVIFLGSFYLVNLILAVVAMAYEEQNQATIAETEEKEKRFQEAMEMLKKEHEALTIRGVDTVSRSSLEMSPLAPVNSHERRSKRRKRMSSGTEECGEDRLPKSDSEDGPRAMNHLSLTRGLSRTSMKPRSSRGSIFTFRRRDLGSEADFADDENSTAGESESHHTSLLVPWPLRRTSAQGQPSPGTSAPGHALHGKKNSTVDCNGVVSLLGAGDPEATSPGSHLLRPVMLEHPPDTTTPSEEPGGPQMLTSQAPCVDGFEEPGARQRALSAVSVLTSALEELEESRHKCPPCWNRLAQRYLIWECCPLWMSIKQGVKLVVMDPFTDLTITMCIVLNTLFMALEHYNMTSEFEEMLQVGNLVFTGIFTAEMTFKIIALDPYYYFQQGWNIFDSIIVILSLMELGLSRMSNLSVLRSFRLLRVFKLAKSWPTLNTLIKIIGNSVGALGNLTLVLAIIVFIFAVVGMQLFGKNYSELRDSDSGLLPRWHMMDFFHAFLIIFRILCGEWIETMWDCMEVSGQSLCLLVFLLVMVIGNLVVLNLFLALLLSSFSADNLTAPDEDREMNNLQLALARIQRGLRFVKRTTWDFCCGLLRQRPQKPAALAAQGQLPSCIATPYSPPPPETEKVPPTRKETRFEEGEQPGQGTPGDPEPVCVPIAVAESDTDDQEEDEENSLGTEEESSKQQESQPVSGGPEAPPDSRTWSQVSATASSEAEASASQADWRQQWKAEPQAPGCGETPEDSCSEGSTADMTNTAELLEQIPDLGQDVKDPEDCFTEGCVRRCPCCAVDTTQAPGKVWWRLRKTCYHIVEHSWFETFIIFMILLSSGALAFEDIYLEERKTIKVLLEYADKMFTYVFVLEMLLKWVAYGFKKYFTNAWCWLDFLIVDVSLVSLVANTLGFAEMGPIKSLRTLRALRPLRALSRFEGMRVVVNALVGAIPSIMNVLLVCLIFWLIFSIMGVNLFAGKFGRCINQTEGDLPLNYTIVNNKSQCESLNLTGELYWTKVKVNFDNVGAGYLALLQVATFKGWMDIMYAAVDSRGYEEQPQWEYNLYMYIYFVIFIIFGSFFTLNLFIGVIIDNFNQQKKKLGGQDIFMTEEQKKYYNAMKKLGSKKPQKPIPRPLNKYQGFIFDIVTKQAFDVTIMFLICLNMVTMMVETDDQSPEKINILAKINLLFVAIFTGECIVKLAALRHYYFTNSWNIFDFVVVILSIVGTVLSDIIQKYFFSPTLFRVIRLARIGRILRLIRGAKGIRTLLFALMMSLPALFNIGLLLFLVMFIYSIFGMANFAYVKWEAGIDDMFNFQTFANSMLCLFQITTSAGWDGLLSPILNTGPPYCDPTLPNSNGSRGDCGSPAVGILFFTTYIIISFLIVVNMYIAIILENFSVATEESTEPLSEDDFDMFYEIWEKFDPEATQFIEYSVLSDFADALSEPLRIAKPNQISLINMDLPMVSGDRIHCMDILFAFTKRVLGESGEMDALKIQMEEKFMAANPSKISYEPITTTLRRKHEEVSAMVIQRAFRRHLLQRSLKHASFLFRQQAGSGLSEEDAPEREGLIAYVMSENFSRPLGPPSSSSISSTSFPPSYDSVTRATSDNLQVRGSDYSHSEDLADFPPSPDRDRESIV
# Nav 1.7, sequence (Q15858 whole entry): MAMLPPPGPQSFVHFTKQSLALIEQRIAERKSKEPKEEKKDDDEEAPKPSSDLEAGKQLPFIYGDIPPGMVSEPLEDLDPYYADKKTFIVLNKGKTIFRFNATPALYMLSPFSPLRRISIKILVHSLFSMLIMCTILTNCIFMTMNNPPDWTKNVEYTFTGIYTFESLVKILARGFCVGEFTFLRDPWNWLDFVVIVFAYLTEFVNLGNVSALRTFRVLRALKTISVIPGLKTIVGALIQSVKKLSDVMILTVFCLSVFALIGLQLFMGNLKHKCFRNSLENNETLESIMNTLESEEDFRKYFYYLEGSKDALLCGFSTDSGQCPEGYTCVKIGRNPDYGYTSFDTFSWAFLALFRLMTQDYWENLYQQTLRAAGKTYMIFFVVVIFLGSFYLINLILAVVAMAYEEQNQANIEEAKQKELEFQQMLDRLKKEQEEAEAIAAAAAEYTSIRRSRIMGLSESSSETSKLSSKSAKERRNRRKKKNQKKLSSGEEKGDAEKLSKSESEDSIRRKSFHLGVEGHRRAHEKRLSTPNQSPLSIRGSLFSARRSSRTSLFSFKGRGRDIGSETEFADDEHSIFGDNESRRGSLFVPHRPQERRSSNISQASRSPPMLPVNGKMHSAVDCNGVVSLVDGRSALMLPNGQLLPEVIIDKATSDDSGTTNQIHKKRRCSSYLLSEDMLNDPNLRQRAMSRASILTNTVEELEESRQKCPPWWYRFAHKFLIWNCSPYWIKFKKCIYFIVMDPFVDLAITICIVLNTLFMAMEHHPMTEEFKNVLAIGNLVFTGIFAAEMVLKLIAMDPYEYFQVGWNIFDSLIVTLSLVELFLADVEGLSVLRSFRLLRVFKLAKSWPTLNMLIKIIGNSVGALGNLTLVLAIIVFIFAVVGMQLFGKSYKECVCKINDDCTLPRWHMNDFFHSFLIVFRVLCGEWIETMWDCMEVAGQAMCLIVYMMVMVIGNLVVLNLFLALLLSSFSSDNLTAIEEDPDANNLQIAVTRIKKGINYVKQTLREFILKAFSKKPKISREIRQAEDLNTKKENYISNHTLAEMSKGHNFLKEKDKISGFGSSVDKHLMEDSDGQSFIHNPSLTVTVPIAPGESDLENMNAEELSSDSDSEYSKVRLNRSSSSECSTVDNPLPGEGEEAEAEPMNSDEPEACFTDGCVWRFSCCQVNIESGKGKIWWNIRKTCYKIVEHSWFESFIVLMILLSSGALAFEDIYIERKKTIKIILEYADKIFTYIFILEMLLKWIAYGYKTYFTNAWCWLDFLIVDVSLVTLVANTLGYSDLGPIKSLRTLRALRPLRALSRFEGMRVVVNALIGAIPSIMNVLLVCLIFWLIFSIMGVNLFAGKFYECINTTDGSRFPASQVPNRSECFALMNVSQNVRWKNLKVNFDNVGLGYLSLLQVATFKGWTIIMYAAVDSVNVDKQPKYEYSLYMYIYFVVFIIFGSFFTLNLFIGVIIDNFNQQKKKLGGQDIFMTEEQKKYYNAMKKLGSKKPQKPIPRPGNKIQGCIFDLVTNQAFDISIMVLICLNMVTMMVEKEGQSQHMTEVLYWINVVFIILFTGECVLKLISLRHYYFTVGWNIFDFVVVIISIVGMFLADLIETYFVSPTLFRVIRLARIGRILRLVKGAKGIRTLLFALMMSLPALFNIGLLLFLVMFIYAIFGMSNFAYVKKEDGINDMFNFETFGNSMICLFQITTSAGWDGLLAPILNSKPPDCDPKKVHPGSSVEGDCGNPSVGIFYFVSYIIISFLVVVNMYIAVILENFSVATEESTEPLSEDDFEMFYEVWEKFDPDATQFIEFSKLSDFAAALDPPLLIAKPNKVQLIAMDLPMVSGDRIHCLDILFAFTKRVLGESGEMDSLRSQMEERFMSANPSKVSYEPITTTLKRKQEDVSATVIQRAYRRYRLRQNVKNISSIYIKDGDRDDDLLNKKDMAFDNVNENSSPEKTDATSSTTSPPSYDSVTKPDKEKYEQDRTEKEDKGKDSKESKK
SMILES,pIC50 (Nav 1.7),IC50 (Nav 1.5),further results
"Cn1nccc1-c1cc(Cl)ccc1[C@@H]1CCOc2cc(S(=O)(=O)Nc3cccc(F)n3)ccc21 [Example 31, (S&R)-4-(4-chloro-2-(1-methyl-1H-pyrazol-5-yl)phenyl)-N-(6-fluoropyridin-2-yl)chroman-7-sulfonamide]",5.69,> 10 µM,
"O=S(=O)(Nc1ncc(F)cn1)c1ccc2c(c1)OCC[C@@H]2c1ccc(C(F)(F)F)cc1CCC(F)F (racemic) [Example-212, (R/S)-4-(2-(3,3-difluoropropyl)-4-(trifluoromethyl)phenyl)-N-(5-fluoropyrimidin-2-yl)chroman-7-sulfonamide]",7.74,> 10 µM,
"Cc1nc(-c2cc(C(F)(F)F)ccc2[C@H]2CCOc3cc(S(=O)(=O)Nc4ncc(F)cn4)ccc32)ccc1F (racemic) [Example-223, (R/S)-4-(2-(5-fluoro-6-methylpyridin-2-yl)-4-(trifluoromethyl)phenyl)-N-(5-fluoropyrimidin-2-yl)chroman-7-sulfonamide]",7.09,,inhibition at 10 µM (Nav 1.5): 33%
"Cn1nccc1-c1cc(C(F)(F)F)ccc1[C@H]1CCOc2cc(S(=O)(=O)Nc3ncccc3F)ccc21 [Example 18, (S&R)—N-(3-Fluoropyridin-2-yl)-4-(2-(1-methyl-1H-pyrazol-5-yl)-4-(trifluoromethyl)phenyl)chromane-7-sulfonamide]",6.12,> 10 µM,
"COCCCOc1cc(C(F)(F)F)ccc1[C@H]1CCOc2cc(S(=O)(=O)Nc3ncc(F)cn3)ccc21 (racemic) [Example 132, (R/S)—N-(5-fluoropyrimidin-2-yl)-4-(2-(3-methoxypropoxy)-4-(trifluoromethyl)phenyl)chroman-7-sulfonamide]",6.79,> 10 µM,
"O=S(=O)(Nc1ncccn1)c1ccc2c(c1)OCCC2c1ccc(C(F)(F)F)cc1O[C@@H]1CCOC1 (stereo partly drawn) [Example-186, (S&R)—N-(pyrimidin-2-yl)-4-(2-(((R)-tetrahydrofuran-3-yl)oxy)-4-(trifluoromethyl)phenyl)chroman-7-sulfonamide]",7.08,,Nav1.5 % inhibition @ 10 μM (Nav 1.5): 46%
"CS(=O)(=O)CCc1cc(C(F)(F)F)ccc1[C@H]1CCOc2cc(S(=O)(=O)Nc3ncc(F)cn3)ccc21 [Example 86, (S&R)—N-(5-Fluoropyrimidin-2-yl)-4-(2-(2-(methylsulfonyl)ethyl)-4-(trifluoromethyl)phenyl)chroman-7-sulfonamide]",5.62,> 10 µM,
Cc1nc(-c2cc(C(F)(F)F)ccc2[C@@H]2CCOc3cc(S(=O)(=O)Nc4cccc(F)n4)ccc32)cs1 [Example 61],6.25,> 10 µM,
"O=S(=O)(Nc1cccnn1)c1ccc2c(c1)OCC[C@@H]2c1ccc(C(F)(F)F)cc1CCCCF (racemic) [Example 166, (R/S)-4-(2-(4-fluorobutyl)-4-(trifluoromethyl)phenyl)-N-(pyridazin-3-yl)chroman-7-sulfonamide]",7.30,,pIC50 (Nav 1.5): 6.87
"O=S(=O)(Nc1ncc(F)cn1)c1ccc2c(c1)OCC[C@@H]2c1ccc(C(F)(F)F)cc1O[C@H]1CCOC1 (racemic) [Example-182, (S/R)—N-(5-fluoropyrimidin-2-yl)-4-(2-(((S)-tetrahydrofuran-3-yl)oxy)-4-(trifluoromethyl)phenyl)chroman-7-sulfonamide]",7.26,,inhibition at 10 µM (Nav 1.5): 30%
"Cc1ccnc(NS(=O)(=O)c2ccc3c(c2)OCC[C@H]3c2ccc(C(F)(F)F)cc2-c2ccnn2C)c1 [Example 23, (S&R)-4-(2-(1-methyl-1H-pyrazol-5-yl)-4-(trifluoromethyl)phenyl)-N-(4-methylpyridin-2-yl)chroman-7-sulfonamide]",5.43,,Nav1.5 % inhibition @ 10 μM (Nav 1.5): 59%
"COCCCOc1cc(C(F)(F)F)ccc1[C@H]1CCOc2cc(S(=O)(=O)Nc3ncccn3)ccc21 [Example 131, (S&R)-4-(2-(3-methoxypropoxy)-4-(trifluoromethyl)phenyl)-N-(pyrimidin-2-yl)chroman-7-sulfonamide]",7.28,,Nav1.5 % inhibition @ 10 μM (Nav 1.5): 66%
"COCCOc1cc(C(F)(F)F)ccc1[C@H]1CCOc2cc(S(=O)(=O)Nc3ncc(F)cn3)ccc21 (racemic) [Example 126, (R/S)—N-(5-fluoropyrimidin-2-yl)-4-(2-(2-methoxyethoxy)-4-(trifluoromethyl)phenyl)chroman-7-sulfonamide]",6.85,> 10 µM,
"O=S(=O)(Nc1ncccn1)c1ccc2c(c1)OCC[C@@H]2c1ccc(C(F)(F)F)cc1-c1nccs1 (racemic) [Example 93, (R/S)—N-(pyrimidin-2-yl)-4-(2-(thiazol-2-yl)-4-(trifluoromethyl)phenyl)chroman-7-sulfonamide]",8.40,,inhibition at 10 µM (Nav 1.5): 56%
"COCCOc1cc(C(F)(F)F)ccc1[C@H]1CCOc2cc(S(=O)(=O)Nc3ccncn3)ccc21 (racemic) [Example 127, (R/S)-4-(2-(2-methoxyethoxy)-4-(trifluoromethyl)phenyl)-N-(pyrimidin-4-yl)chroman-7-sulfonamide]",8.40,,inhibition at 10 µM (Nav 1.5): 37%
"O=C1CCCN1c1cc(C(F)(F)F)ccc1[C@H]1CCOc2cc(S(=O)(=O)Nc3ncccn3)ccc21 (racemic) [Example 115, (R/S)-4-(2-(2-oxopyrrolidin-1-yl)-4-(trifluoromethyl)phenyl)-N-(pyrimidin-2-yl)chroman-7-sulfonamide]",7.39,> 10 µM,
"O=S(=O)(Nc1cccc(F)n1)c1ccc2c(c1)OCC[C@@H]2c1ccc(C(F)(F)F)cc1OC1COC1 (racemic) [Example-219, (S/R)—N-(6-fluoropyridin-2-yl)-4-(2-(oxetan-3-yloxy)-4-(trifluoromethyl)phenyl)chromane-7-sulfonamide]",7.47,,inhibition at 10 µM (Nav 1.5): 40%
"O=S(=O)(Nc1ccncn1)c1ccc2c(c1)OCC[C@@H]2c1ccc(C(F)(F)F)cc1CCC(F)F (racemic) [Example-213, (R/S)-4-(2-(3,3-difluoropropyl)-4-(trifluoromethyl)phenyl)-N-(pyrimidin-4-yl)chroman-7-sulfonamide]",7.47,,inhibition at 10 µM (Nav 1.5): 65%
"O=S(=O)(Nc1ccncn1)c1ccc2c(c1)OCC[C@@H]2c1ccc(C(F)(F)F)cc1OC1CCOCC1 [Example-173, (R&S)—N-(pyrimidin-4-yl)-4-(2-((tetrahydro-2H-pyran-4-yl)oxy)-4-(trifluoromethyl)phenyl)chroman-7-sulfonamide]",7.92,,Nav1.5 % inhibition @ 10 μM (Nav 1.5): 63%
"O=S(=O)(Nc1ccncn1)c1ccc2c(c1)OCC[C@H]2c1ccc(C(F)(F)F)cc1-c1ccc(F)cc1 [Example 47, (S&R)-4-(4′-Fluoro-5-(trifluoromethyl)-[1,1′-biphenyl]-2-yl)-N-(pyrimidin-4-yl)chromane-7-sulfonamide]",,> 10 µM,Nav1.7 inhibition @ 10 μM (Nav 1.7; 10 μM): 64%
"O=S(=O)(Nc1ncccn1)c1ccc2c(c1)OCC[C@@H]2c1ccc(C(F)(F)F)cc1C1CCOCC1 [Example 110, (S&R)—N-(pyrimidin-2-yl)-4-(2-(tetrahydro-2H-pyran-4-yl)-4-(trifluoromethyl)phenyl)chroman-7-sulfonamide]",6.81,,pIC50 (Nav 1.5): 5.76
"O=S(=O)(Nc1cccnn1)c1ccc2c(c1)OCC[C@@H]2c1ccc(C(F)(F)F)cc1OC1CCOCC1 [Example-175, (R&S)—N-(pyridazin-3-yl)-4-(2-((tetrahydro-2H-pyran-4-yl)oxy)-4-(trifluoromethyl)phenyl)chroman-7-sulfonamide]",6.61,,pIC50 (Nav 1.5): 5.77
"O=C(O)c1ccc(-c2cc(C(F)(F)F)ccc2[C@H]2CCOc3cc(S(=O)(=O)Nc4ncccn4)ccc32)cc1 [Example-188, (S&R)-2′-(7-(N-(pyrimidin-2-yl)sulfamoyl)chroman-4-yl)-5′-(trifluoromethyl)-[1,1′-biphenyl]-4-carboxylic acid]",7.17,> 10 µM,
"COCCCCc1cc(C(F)(F)F)ccc1[C@H]1CCOc2cc(S(=O)(=O)Nc3ccncn3)ccc21 (racemic) [Example 149, (R/S)-4-(2-(4-methoxybutyl)-4-(trifluoromethyl)phenyl)-N-(pyrimidin-4-yl)chroman-7-sulfonamide]",7.68,,inhibition at 10 µM (Nav 1.5): 58%
"CS(=O)(=O)CCc1cc(C(F)(F)F)ccc1[C@H]1CCOc2cc(S(=O)(=O)Nc3cccc(F)n3)ccc21 [Example 82, (S&R)—N-(6-Fluoropyridin-2-yl)-4-(2-(2-(methylsulfonyl)ethyl)-4-(trifluoromethyl)phenyl)chroman-7-sulfonamide]",7.70,> 10 µM,
"Cc1nc(-c2cc(C(F)(F)F)ccc2[C@H]2CCOc3cc(S(=O)(=O)Nc4cccnn4)ccc32)cs1 [Example 70, (S&R)-4-(2-(2-Methylthiazol-4-yl)-4-(trifluoromethyl)phenyl)-N-(pyridazin-3-yl)chroman-7-sulfonamide]",6.94,> 10 µM,
"O=S(=O)(Nc1ncccn1)c1ccc2c(c1)OCCC2c1ccc(C(F)(F)F)cc1O[C@H]1CCOC1 (stereo partly drawn) [Example-179, (R&S)—N-(pyrimidin-2-yl)-4-(2-(((S)-tetrahydrofuran-3-yl)oxy)-4-(trifluoromethyl)phenyl)chroman-7-sulfonamide]",7.42,,Nav1.5 % inhibition @ 10 μM (Nav 1.5): 64%
"CS(=O)(=O)CCc1cc(C(F)(F)F)ccc1[C@H]1CCOc2cc(S(=O)(=O)Nc3ncccn3)ccc21 [Example 84, (S&R)-4-(2-(2-(Methylsulfonyl)ethyl)-4-(trifluoromethyl)phenyl)-N-(pyrimidin-2-yl)chroman-7-sulfonamide]",5.59,> 10 µM,
"COCCCc1cc(C(F)(F)F)ccc1[C@H]1CCOc2cc(S(=O)(=O)Nc3ncccn3)ccc21 [Example 141, (S&R)-4-(2-(3-methoxypropyl)-4-(trifluoromethyl)phenyl)-N-(pyrimidin-2-yl)chroman-7-sulfonamide]",7.16,,Nav1.5 % inhibition @ 10 μM (Nav 1.5): 65%
